Patent US7498311B2, “Treatment of migraine” (New England Medical Center Hospitals, Inc., priority 1995, dated 2009)

System: migraine episodes in epileptic patients
Test: Anti-migraine activity in epileptic patients (two case reports, daily topiramate)
Format: in vivo, human
Text: Patient 1, an epileptic, suffered from complex partial seizures and frequent episodes of migraine, some of which were temporally related to their seizures. Seizures and migraines were incompletely responsive to large doses of calcium channel blockers added to their anti-epileptic drug regimen. Patient 2 suffered from complex partial seizures and frequent, severe migraine episodes, requiring regular use of sumatripan. Patient 1 took topiramate daily for 18 months. Patient 2 took topiramate daily for 10 months.

SMILES: CC1(C)O[C@@H]2[C@@H](CO[C@@]3(COS(N)(=O)=O)OC(C)(C)O[C@@H]23)O1 [topiramate, 2,3:4,5-bis-O-(1-methylethydine)-β-D-fructopyranose sulfamate]
- improvement in migrainous episodes (Patient 1 (epileptic, complex partial seizures, frequent migraine), 600 mg/d): substantial improvement in migrainous episodes
- migrainous episodes (Patient 1, after taking 800 mg/d, verapamil, nimodipine and cimetidine withdrawn): had not experienced any migrainous episodes
- adverse effects (Patient 1, daily for 18 months): did not experience any adverse effects
- control of migraine episodes (Patient 1, daily for 18 months, except for one migrainous aura, all calcium channel blockers withdrawn): nearly completely controlled
- improvement of migraine headaches (Patient 2 (epileptic, complex partial seizures, frequent severe migraine), 400 mg/d): substantial improvement of their migraine headaches
- frequency of migraine headaches (Patient 2, after taking 200 mg/d): substantially less frequent migraine headaches
- migraine status after the sixth month (Patient 2, daily for 10 months): migraine-free thereafter until the tenth month
- migraine episodes in the fifth and sixth months of use (Patient 2, during brief cessation of their propanolol therapy): several episodes of basilar migraine without headache
- use of sumatriptan rescue medication (Patient 2, once taking 300 mg/d): eliminating the average use of 2 administrations of sumatriptan per week
